Reference: ChEMBL document CHEMBL3608201, “Synthesis and biological evaluation of levofloxacin core-based derivatives with potent antibacterial activity against resistant Gram-positive pathogens” (Bioorg Med Chem Lett, 2015)
Values after ≈ are worked out from the molar mass of the structure shown.

Assays:
Escherichia coli [1] = assay: Antimicrobial activity against Escherichia coli ATCC 25922 by standard broth microdilution method; type: functional
Streptococcus pneumoniae [2] = assay: Antimicrobial activity against Streptococcus pneumoniae ATCC 49619 by standard broth microdilution method; type: functional
[3] = test system: Staphylococcus epidermidis; assay: Antimicrobial activity against Staphylococcus epidermidis ATCC 12228 by standard broth microdilution method; type: functional
Staphylococcus aureus [4] = assay: Antimicrobial activity against Staphylococcus aureus ATCC 25923 by standard broth microdilution method; type: functional
Pseudomonas aeruginosa = assay: Antimicrobial activity against Pseudomonas aeruginosa ATCC 27853 by standard broth microdilution method; type: functional
Streptococcus pyogenes = assay: Antimicrobial activity against Streptococcus pyogenes ATCC 19615 by standard broth microdilution method; type: functional
Staphylococcus aureus [5] = assay: Potency index, ratio of MIC for levofloxacin to MIC for test compound against methicillin-resistant Staphylococcus aureus clinical isolates by standard broth microdilution method; type: functional
Streptococcus pneumoniae [6] = assay: Antimicrobial activity against penicillin-resistant Streptococcus pneumoniae clinical isolates by standard broth microdilution method; type: functional
Escherichia coli [7] = assay: Antimicrobial activity against ciprofloxacin-resistant Escherichia coli clinical isolates by standard broth microdilution method; type: functional
Staphylococcus aureus [8] = assay: Potency index, ratio of MIC for moxifloxacin to MIC for test compound against methicillin-resistant Staphylococcus aureus clinical isolates by standard broth microdilution method; type: functional
[9] = test system: Staphylococcus epidermidis; assay: Antimicrobial activity against methicillin-resistant Staphylococcus epidermidis clinical isolates by standard broth microdilution method; type: functional
Staphylococcus aureus [10] = assay: Antimicrobial activity against levofloxacin-resistant Staphylococcus aureus clinical isolates by standard broth microdilution method; type: functional
Staphylococcus aureus [11] = assay: Antimicrobial activity against methicillin-resistant Staphylococcus aureus clinical isolates by standard broth microdilution method; type: functional
[12] = Aqueous solubility of the compound in water; type: physicochemical
[13] = Toxicity in ICR mouse administered as single intravenous dose; type: organism-based; conditions: in vivo
Staphylococcus aureus [14] = assay: Potency index, ratio of MIC for ciprofloxacin to MIC for test compound against Staphylococcus aureus ATCC 25923 by standard broth microdilution method; type: functional
Staphylococcus aureus [15] = assay: Potency index, ratio of MIC for moxifloxacin to MIC for test compound against Staphylococcus aureus ATCC 25923 by standard broth microdilution method; type: functional

SMILES | MIC (Escherichia coli [1]) [µg/mL] | MIC (Streptococcus pneumoniae [2]) [µg/mL] | MIC [3] [µg/mL] | MIC (Staphylococcus aureus [4]) [µg/mL] | MIC (Pseudomonas aeruginosa) [µg/mL] | MIC (Streptococcus pyogenes) [µg/mL] | Ratio (Staphylococcus aureus [5]) | MIC (Streptococcus pneumoniae [6]) [µg/mL] | MIC (Escherichia coli [7]) [µg/mL] | Ratio (Staphylococcus aureus [8]) | MIC [9] [µg/mL] | MIC (Staphylococcus aureus [10]) [µg/mL] | MIC (Staphylococcus aureus [11]) [µg/mL] | solubility [12] [µg/mL] | LD50 [13] [mg/kg] | Ratio (Staphylococcus aureus [14]) | Ratio (Staphylococcus aureus [15])
O=C(O)c1cn2c3c(c(N4CC(O)C4)c(F)cc3c1=O)OC[C@@H]2CF | 0.25 (≈ 0.71 µM) | 0.25 (≈ 0.71 µM) | 0.0625 (≈ 0.177 µM) | 0.125 (≈ 0.355 µM) | 4 (≈ 11.4 µM) | 0.0625 (≈ 0.177 µM) |  |  |  |  |  |  |  |  |  |  | 
COc1c(N2C[C@@H]3CCCN[C@@H]3C2)c(F)cc2c(=O)c(C(=O)O)cn(C3CC3)c12 [MOXIFLOXACIN] | 0.031 (≈ 0.0772 µM) | 0.25 (≈ 0.623 µM) | ≤ 0.016 |  | 4 (≈ 9.96 µM) | 0.25 (≈ 0.623 µM) |  |  |  |  |  |  |  |  |  |  | 
C[C@H]1COc2c(N3CC[C@H](O)C3)c(F)cc3c(=O)c(C(=O)O)cn1c23 | ≤ 0.016 | 2 (≈ 5.74 µM) | 0.031 (≈ 0.089 µM) | 0.031 (≈ 0.089 µM) | 1 (≈ 2.87 µM) | 2 (≈ 5.74 µM) | 32 | 2 (≈ 5.74 µM) | 0.0625 (≈ 0.179 µM) | 4 | 1 (≈ 2.87 µM) | 0.25 (≈ 0.718 µM) | 1 (≈ 2.87 µM) |  |  |  | 
O=C(O)c1cn2c3c(c(N4CC[C@H](O)C4)c(F)cc3c1=O)OC[C@@H]2CF | 0.25 (≈ 0.682 µM) | 0.125 (≈ 0.341 µM) | 0.031 (≈ 0.0846 µM) | 0.031 (≈ 0.0846 µM) | 1 (≈ 2.73 µM) | ≤ 0.016 |  | 0.031 (≈ 0.0846 µM) | 0.5 (≈ 1.36 µM) |  | 0.5 (≈ 1.36 µM) | 0.5 (≈ 1.36 µM) | 1 (≈ 2.73 µM) | 440 (≈ 1200 µM) |  |  | 
O=C(O)c1cn2c3c(c(N4CC[C@@H](O)C4)c(F)cc3c1=O)OC[C@@H]2CF | 0.125 (≈ 0.341 µM) | 0.5 (≈ 1.36 µM) | 0.0625 (≈ 0.171 µM) | 0.25 (≈ 0.682 µM) | 2 (≈ 5.46 µM) | 0.0625 (≈ 0.171 µM) |  | 0.25 (≈ 0.682 µM) | 1 (≈ 2.73 µM) |  | 2 (≈ 5.46 µM) | 2 (≈ 5.46 µM) | 4 (≈ 10.9 µM) |  |  |  | 
C[C@H]1COc2c(N3CC(O)C3)c(F)cc3c(=O)c(C(=O)O)cn1c23 | 0.125 (≈ 0.374 µM) | 0.25 (≈ 0.748 µM) | 0.0625 (≈ 0.187 µM) | 0.0625 (≈ 0.187 µM) | 4 (≈ 12 µM) | 0.125 (≈ 0.374 µM) |  | 0.5 (≈ 1.5 µM) | 0.5 (≈ 1.5 µM) |  | 2 (≈ 5.98 µM) | 1 (≈ 2.99 µM) | 8 (≈ 23.9 µM) |  |  |  | 
C[C@H]1COc2c(N3CCN(C)CC3)c(F)cc3c(=O)c(C(=O)O)cn1c23.C[C@H]1COc2c(N3CCN(C)CC3)c(F)cc3c(=O)c(C(=O)O)cn1c23.O [LEVOFLOXACIN] | ≤ 0.016 |  | 0.125 | 0.25 |  | 0.5 |  |  | 8 |  | 8 | 4 | 32 |  | 358 |  | 
C[C@H]1COc2c(N3CCC(O)CC3)c(F)cc3c(=O)c(C(=O)[O-])cn1c23.[K+] | 0.5 | 0.5 | 0.0625 | 0.0625 | 2 | 0.25 |  | 0.25 | 1 |  | 2 | 4 | 8 |  |  |  | 
C[C@H]1COc2c(N3CC[C@H](O)C3)c(F)cc3c(=O)c(C(=O)[O-])cn1c23.[Na+] | 0.0625 | 4 | 0.125 | 0.0625 | 2 | 4 |  | 4 | 0.25 |  | 2 | 2 | 4 |  |  |  | 
CC1(C)S[C@@H]2[C@H](NC(=O)Cc3ccccc3)C(=O)N2[C@H]1C(=O)O [PENICILLIN G] |  | 1 (≈ 2.99 µM) |  |  |  | 1 (≈ 2.99 µM) |  | 1 (≈ 2.99 µM) |  |  |  |  |  |  |  |  | 
C[C@H]1COc2c(N3CC[C@H](O)C3)c(F)cc3c(=O)c(C(=O)[O-])cn1c23.[K+] | 0.125 | 8 | 0.5 | 0.0625 | 4 | 4 |  | 4 | 0.5 |  | 4 | 2 | 4 |  |  |  | 
C[C@H]1COc2c(N3CC[C@@H](O)C3)c(F)cc3c(=O)c(C(=O)O)cn1c23 | 0.125 (≈ 0.359 µM) | 0.25 (≈ 0.718 µM) | 0.0625 (≈ 0.179 µM) | 0.0625 (≈ 0.179 µM) | 8 (≈ 23 µM) | 0.25 (≈ 0.718 µM) |  | 0.5 (≈ 1.44 µM) | 0.5 (≈ 1.44 µM) |  | 2 (≈ 5.74 µM) | 2 (≈ 5.74 µM) | 4 (≈ 11.5 µM) |  |  |  | 
C[C@H]1COc2c(N3CC[C@H](O)C3)c(F)cc3c(=O)c(C(=O)O)cn1c23.O | 0.031 | 0.125 | 0.125 | 0.031 | 1 | ≤ 0.016 |  | ≤ 0.016 | 0.0625 |  | 1 | 0.25 | 2 | 370 |  |  | 
O=C(O)c1cn2c3c(c(N4CCC(O)CC4)c(F)cc3c1=O)OC[C@@H]2CF | 1 (≈ 2.63 µM) | 0.125 (≈ 0.329 µM) | 0.0625 (≈ 0.164 µM) | 0.0625 (≈ 0.164 µM) | 2 (≈ 5.26 µM) | 0.031 (≈ 0.0815 µM) |  | 0.031 (≈ 0.0815 µM) | 2 (≈ 5.26 µM) |  | 1 (≈ 2.63 µM) | 0.5 (≈ 1.31 µM) | 2 (≈ 5.26 µM) |  |  |  | 
CN[C@H](CC(C)C)C(=O)N[C@H]1C(=O)N[C@@H](CC(N)=O)C(=O)N[C@H]2C(=O)N[C@H]3C(=O)N[C@H](C(=O)N[C@H](C(=O)O)c4cc(O)cc(O)c4-c4cc3ccc4O)[C@H](O)c3ccc(c(Cl)c3)Oc3cc2cc(c3O[C@@H]2O[C@H](CO)[C@@H](O)[C@H](O)[C@H]2O[C@H]2C[C@](C)(N)[C@H](O)[C@H](C)O2)Oc2ccc(cc2Cl)[C@H]1O [VANCOMYCIN] |  | 0.25 (≈ 0.173 µM) |  |  |  | 0.0625 (≈ 0.0431 µM) |  | 0.125 (≈ 0.0863 µM) |  |  |  |  |  |  |  |  | 
O=C(O)c1cn(C2CC2)c2cc(N3CCNCC3)c(F)cc2c1=O [CIPROFLOXACIN] | ≤ 0.016 | 2 (≈ 6.04 µM) | 0.0625 (≈ 0.189 µM) |  |  | 0.5 (≈ 1.51 µM) |  |  |  |  |  |  |  |  |  |  | 
C[C@H]1COc2c(N3CCC(O)CC3)c(F)cc3c(=O)c(C(=O)O)cn1c23 | 0.125 (≈ 0.345 µM) | 0.125 (≈ 0.345 µM) | 0.031 (≈ 0.0856 µM) | 0.031 (≈ 0.0856 µM) | 2 (≈ 5.52 µM) | 0.0625 (≈ 0.172 µM) |  | 0.031 (≈ 0.0856 µM) | 0.25 (≈ 0.69 µM) |  | 0.5 (≈ 1.38 µM) | 0.5 (≈ 1.38 µM) | 1 (≈ 2.76 µM) | 650 (≈ 1790 µM) |  | 16 | 2
C[C@H]1COc2c(N3CCC(O)CC3)c(F)cc3c(=O)c(C(=O)[O-])cn1c23.[Na+] | 0.25 | 0.5 | 0.0625 | 0.0625 | 2 | 0.125 |  | 0.125 | 0.5 |  | 2 | 2 | 4 |  |  |  | 
